Measured values published in patent publication US8188271B2, “Polycyclic carbamoylpyridone derivative having HIV integrase inhibitory activity” (Shionogi & Co., Ltd., priority 2005, dated 2012).

target: HIV integrase (Human immunodeficiency virus type 1 group M subtype B, UniProt P04585); assay: HIV integrase inhibitory activity assay (strand transfer, immunoplate, OD405); format: biochemical; details: HIV integrase inhibition rate, absorbance OD405 nm
Protocol: The HIV integrase inhibitory activity was investigated based on the following assay method.
(1) Preparation of DNA Solution
By the same method as that described in Experimental Example 1 of WO 2004/024693, a substrate DNA solution (2 μmol/μl) and a target DNA solution (5 μmol/μl) were prepared. […] Each sequence of a substrate DNA and a target DNA is as described in the same Experimental Example.
(2) Measurement of Inhibition Rate (IC50 Value)
Streptavidin (manufactured by Vector Laboratories) was dissolved in a 0.1 M carbonate buffer solution (composition: 90 mM Na2CO3, 10 mM NaHCO3) to a concentration of 40 μg/ml. Each 50 μl of this solution was added to a well of an immunoplate (manufactured by NUNC), and this is allowed to stand at 4° C. overnight to adsorb. Then, each well was washed with a phosphate buffer (composition: 13.7 mM NaCl, 0.27 mM KCl, 0.43 mM Na2HPO4, 0.14 mM KH2PO4) two times, and 300 μl of a phosphate buffer containing 1% skim milk was added to block it for 30 minutes. Further, each well was washed with a phosphate buffer two times, […] of a substrate DNA solution (2 μmol/μl) was added to adsorb at room temperature for 30 minutes while shaking, and this was washed with a phosphate buffer two times and, then, distilled water once.
Then, to each well prepared as described above were added 12 μl of a buffer (composition: 150 mM MOPS (pH7.2), 75 mM MnCl2, 50 mM 2-mercaptoethanol, 25% glycerol, 500 μg/ml bovine serum albumin-fraction V), and 51 μl of a reaction solution prepared from […] of distilled water. Then, 9 μl of an integrase solution (30 μmol) was added, and the mixture was mixed well. To a well as a negative control (NC) was added 9 μl of a diluting solution (composition: 20 mM MOPS (pH7.2), 400 mM potassium glutamete, 1 mM EDTA, 0.1% NP-40, 20% glycerol, 1 mM DTT, 4 M urea), and this was mixed well using a plate mixer.
After the plate was incubated at 30° C. for 60 minutes, the reaction solution was discarded, followed by washing with 250 μl of a washing buffer (composition: 150 mM MOPS (pH7.2), 50 mM 2-mercaptoethanol, 25% glycerol, 500 μg/ml bovine serum albumin-fraction V) three times.
Then, to each well were added 12 μl of a buffer (composition: 150 mM MOPS (pH7.2), 75 mM MgCl2, 50 mM 2-mercaptoethanol, 25% glycerol, 500 μg/ml bovine serum albumin-fraction V), and 53 μl of a reaction solution prepared from 41 μl of distilled water. Further, 6 μl of a solution of a test compound in DMSO was added to each well, and 6 μl of DMSO was added to a well as a positive control (PC), followed by mixing well using a plate mixer. […]
C abs.; absorbance of well of compound
NC abs.: absorbance of NC
PC abs.: absorbance of PC

Compound | IC50
CN1CN(C[C@@H]2CCCO2)C(=O)c2c(O)c(=O)c(C(=O)NCc3ccc(F)cc3F)cn21 [Example N-15, 5-Hydroxy-1-methyl-4,6-dioxo-3-[(S)-1-(tetrahydro-furan-2-yl)methyl]-2,3,4,6-tetrahydro-1H-pyrid[2,1-f][1,2,4]triazine-7-carboxylic acid 2,4-difluoro-benzylamide] | 3.3 nM
CN1CN(C[C@H]2CCCO2)C(=O)c2c(O)c(=O)c(C(=O)NCc3ccc(F)cc3F)cn21 [Example N-16, 5-Hydroxy-1-methyl-4,6-dioxo-3-[(R)-1-(tetrahydro-furan-2-yl)methyl]-2,3,4,6-tetrahydro-1H-pyrid[2,1-f][1,2,4]triazine-7-carboxylic acid 2,4-difluoro-benzylamide] | 2.6 nM
O=C(NCc1ccc(F)cc1F)c1cn2c(c(O)c1=O)C(=O)N(C[C@@H]1CCCO1)CN2 [Example O-06, 5-Hydroxy-4,6-dioxo-3-[(S)-1-(tetrahydro-furan-2-yl)methyl]-2,3,4,6-tetrahydro-1H-pyrid[2,1-f][1,2,4]triazine-7-carboxylic acid 2,4-difluoro-benzylamide] | 3.8 nM
O=C(NCc1ccc(F)cc1F)c1cn2c(c(O)c1=O)C(=O)N(CCN1CCOCC1)CN2 [Example O-07, 5-Hydroxy-3-(2-morpholin-4-yl-ethyl)-4,6-dioxo-2,3,4,6-tetrahydro-1H-pyrid[2,1-f][1,2,4]triazine-7-carboxylic acid 2,4-difluoro-benzylamide] | 4.8 nM
